Assay results published in paper PMC6156363, “The Modulatory Role of CYP3A4 in Dictamnine-Induced Hepatotoxicity” (Frontiers in Pharmacology, 2018).
Several values for one entry are separate records, joined by “and”; a condition that tells them apart may be missing. Identical values can stand only once.

Legend:
[1] = test system: primary human hepatocytes (PHH); assay: MTT cytotoxicity in primary human hepatocytes, with or without KTZ or RIF pre-incubation; assay type: cell-based; settings: 1 mM DCF
Experimental: All of the compounds were dissolved in DMSO with the final concentration of DMSO was less than 0.2% in the incubation system. The MTT assay was employed and the optical density (OD) value was measured at 490 nm with a microplate reader (BioTek Instruments, Winooski, VT, United States).

[2] = test system: CYP3A4 OE HepG2 cells; assay: MTT cytotoxicity in stable CYP3A4 over-expressed HepG2 cells; assay type: cell-based, human; settings: DCF 400–2000 μM
Experimental: (§1) Cells were allowed to grow in the selection medium for 4 weeks, at which time individual clonal expansions (clones) were visible. Each clone was transferred and tested for enzymatic activity by a quantitative polymerase chain reaction (Q-PCR), western blot analysis and determining hydroxylation of testosterone.
(§2) The neutral red assay was performed to assess cell viability of NIH3T3 cells. […] After incubation, the neutral red reagent was added following the manufacturer’s instruction. The OD value was detected at 570 nm. The WT and CYP3A4 OE HepG2 and L02 were treated in the same manner as NIH3T3 cells, and cell viability was measured by MTT assay. Cell viability was calculated with the following equation (Eq. 1). OD value is presented as the mean ± SD from three independent replicate experiments.
(§3) Cell viability (%) =[…]

[3] = test system: CYP3A4 OE L02 cells; assay: MTT cytotoxicity in stable CYP3A4 over-expressed L02 cells; assay type: cell-based, human; settings: DCF 400–2000 μM
Experimental: as §1, §2, §3

[4] = test system: ICR mice; assay: Liver injury in mice, group A (DEX induction): liver/body weight, ALT, AST, H&E; assay type: in vivo; settings: individual mouse, liver H&E
Experimental: (§4) Male adult ICR mice (20 ± 2 g) were supplied by the Model Animal Research Center of Nanjing University (Nanjing, China). All experiments and animal care were conducted in accordance with the Provision and General Recommendation of Chinese Experimental Animals Administration Legislation and were approved by the Science and Technology Department of Jiangsu Province [license number: SYXK (SU) 2016-0011]. The mice were housed in a controlled temperature and humidity of 22 ± 2°C and 55 ± 5%, respectively, and maintained on a 12 h light/dark cycle with free access to food and water. Mice were fastened for 12 h and free to water before treatment.
(§5) Mice were randomly assigned into two groups for different treatment. The protocol was conducted as previously described with minor modification ([Iida et al., 2015]; [Li W. et al., 2016]). […] Blood and liver tissues were collected in 24 h following treatment. All the livers were quickly removed and the left lateral liver lobes were used for histopathological examinations.
The collected blood samples were allowed to clot at room temperature, followed by centrifugation at 4°C, 1,000 × g for 10 min. […] The sections were stained with hematoxylin and eosin (H&E), and finally evaluated by a pathologist using an optical microscope.

[5] = test system: ICR mice; assay: Liver injury in mice, group B (KTZ inhibition): liver/body weight, ALT, AST, H&E; assay type: in vivo; settings: individual mouse, liver H&E
Experimental: as §4, §5
The collected blood samples were allowed to clot at room temperature, followed by centrifugation at 4°C, 1,000 × g for 10 min. The resulting sera were immediately sent for alanine transaminase (ALT) and aspartate aminotransferase (AST) assays to the laboratory in Jiangsu Province Hospital of Traditional Chinese and Western Medicine (Nanjing, China) on ice. The testing laboratory was authenticated with ISO15189 and the assay was performed in a Roche Cobas 8000 (ISE/701/701/502) automatic biochemical analyzer. Liver tissues were immediately fixed in 4% paraformaldehyde for at least 24 h, then paraffin-processed, and sectioned into 3-μm thick slices. The sections were stained with hematoxylin and eosin (H&E), and finally evaluated by a pathologist using an optical microscope.

[6] = test system: CYP3A11; assay: Hepatic CYP3A11 expression in mice by Q-PCR and Western blot; assay type: in vivo, mouse; settings: mice liver, KTZ 75 mg/kg i.p., vs control

SMILES: O=C(O)Cc1ccccc1Nc1c(Cl)cccc1Cl [DCF, diclofenac sodium]
- cell viability of PHH in the presence of KTZ ([1]; 24 h, KTZ 10 μM): remarkably increased
- cell viability of PHH pre-incubated with RIF ([1]; RIF 20 μM): significantly decreased
- cell viability in CYP3A4 OE HepG2 cells compared with WT cells [2]: greatly decreased
- cell viability in CYP3A4 OE L02 cells compared with WT cells [3]: greatly decreased

SMILES: C[C@@H]1C[C@H]2[C@@H]3CCC4=CC(=O)C=C[C@]4(C)[C@@]3(F)[C@@H](O)C[C@]2(C)[C@@]1(O)C(=O)CO [DEX, Dexamethasone]
- Congestion (histopathologic score) [4]: 1
- Scores (histopathologic, total) [4]: 0 and 1

SMILES: CC(=O)N1CCN(c2ccc(OCC3COC(Cn4ccnc4)(c4ccc(Cl)cc4Cl)O3)cc2)CC1 (stereo not shown) [KTZ, ketoconazole]
- Inflammatory cells (histopathologic score) [5]: 0.5
- Scores (histopathologic, total) [5]: 0 and 0.5
- hepatocytes Degeneration (histopathologic score) [5]: 0.5
- decrease in CYP3A11 expression [6]: about 20%
